From ChEMBL document CHEMBL1129884, “Hindered rotation congeners of mazapertine: High affinity ligands for the 5-HT1A receptor” (Bioorg Med Chem Lett, 1997)
pKi: −log10 of the molar value.

Columns and labels:
[1] = molecular target: 5-hydroxytryptamine receptor 1B (Homo sapiens) (UniProt P28222); assay: Compound was measured for its binding affinity at 5-hydroxytryptamine 1B receptor at a concentration of 100 nM using [125I]CYP as radioligand
Rattus norvegicus [2] = assay: Compound was measured for its antipsychotic activity in the rat conditioned avoidance test, at a dose of 15 mg/kg administered perorally; format: functional; settings: route oral
[3] = molecular target: 5-hydroxytryptamine receptor 1D (Homo sapiens) (UniProt P28221); assay: Compound was measured for its binding affinity at 5-hydroxytryptamine 1D receptor at a concentration of 10 uM using [3H]5-HT as radioligand
5-hydroxytryptamine receptor 1D (Homo sapiens), sequence (P28221 whole entry): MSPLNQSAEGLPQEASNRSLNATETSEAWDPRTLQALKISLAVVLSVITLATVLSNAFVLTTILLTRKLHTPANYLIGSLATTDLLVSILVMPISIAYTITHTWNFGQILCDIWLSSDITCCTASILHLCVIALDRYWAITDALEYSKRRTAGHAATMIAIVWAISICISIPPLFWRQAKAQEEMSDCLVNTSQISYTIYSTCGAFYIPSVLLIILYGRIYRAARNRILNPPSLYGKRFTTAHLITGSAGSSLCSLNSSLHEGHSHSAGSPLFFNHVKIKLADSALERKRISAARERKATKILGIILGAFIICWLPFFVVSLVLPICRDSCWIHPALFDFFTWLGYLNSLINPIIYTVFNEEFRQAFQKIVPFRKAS

D(3) dopamine receptor [4] = molecular target: T1, D(3) dopamine receptor (Homo sapiens, UniProt P35462); assay: Compound was measured […] for its inhibition of Dopamine receptor D3 at a concentration of 100 nM
T1 sequence (P35462 whole entry): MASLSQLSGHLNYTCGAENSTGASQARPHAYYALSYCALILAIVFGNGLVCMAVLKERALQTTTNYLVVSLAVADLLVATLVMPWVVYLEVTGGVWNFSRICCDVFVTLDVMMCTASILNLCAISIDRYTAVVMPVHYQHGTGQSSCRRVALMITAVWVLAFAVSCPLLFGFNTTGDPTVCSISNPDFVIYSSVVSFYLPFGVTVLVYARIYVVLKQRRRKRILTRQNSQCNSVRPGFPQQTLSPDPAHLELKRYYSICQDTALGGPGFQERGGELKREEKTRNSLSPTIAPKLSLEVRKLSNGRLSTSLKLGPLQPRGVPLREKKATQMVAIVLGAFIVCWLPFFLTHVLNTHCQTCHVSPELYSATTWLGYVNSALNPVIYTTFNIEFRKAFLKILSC

[5] = molecular target: Serotonin 2 (5-HT2) receptor (Homo sapiens) (UniProt P41595+P28223+P28335); assay: Compound was measured for its binding affinity at 5-hydroxytryptamine 2 receptor at a concentration of 10 uM using [3H]ketanserin as radioligand; format: protein assay
Serotonin 2 (5-HT2) receptor (Homo sapiens), sequence (P28223 whole entry, looked up, one chain of several): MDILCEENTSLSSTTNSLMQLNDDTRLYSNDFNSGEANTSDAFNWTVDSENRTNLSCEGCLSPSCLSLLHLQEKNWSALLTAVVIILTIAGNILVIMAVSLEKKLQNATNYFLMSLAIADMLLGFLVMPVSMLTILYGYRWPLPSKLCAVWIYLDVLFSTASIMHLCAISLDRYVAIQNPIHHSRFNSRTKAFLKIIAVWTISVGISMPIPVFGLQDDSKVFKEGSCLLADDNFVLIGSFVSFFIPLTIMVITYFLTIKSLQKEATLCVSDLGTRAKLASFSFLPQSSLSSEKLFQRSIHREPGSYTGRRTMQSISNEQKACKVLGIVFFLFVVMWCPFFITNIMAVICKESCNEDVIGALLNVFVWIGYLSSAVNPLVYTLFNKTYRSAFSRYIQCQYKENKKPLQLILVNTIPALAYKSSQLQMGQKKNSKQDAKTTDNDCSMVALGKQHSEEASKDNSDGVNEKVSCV
Serotonin 2 (5-HT2) receptor (Homo sapiens), sequence (P41595 whole entry, looked up, one chain of several): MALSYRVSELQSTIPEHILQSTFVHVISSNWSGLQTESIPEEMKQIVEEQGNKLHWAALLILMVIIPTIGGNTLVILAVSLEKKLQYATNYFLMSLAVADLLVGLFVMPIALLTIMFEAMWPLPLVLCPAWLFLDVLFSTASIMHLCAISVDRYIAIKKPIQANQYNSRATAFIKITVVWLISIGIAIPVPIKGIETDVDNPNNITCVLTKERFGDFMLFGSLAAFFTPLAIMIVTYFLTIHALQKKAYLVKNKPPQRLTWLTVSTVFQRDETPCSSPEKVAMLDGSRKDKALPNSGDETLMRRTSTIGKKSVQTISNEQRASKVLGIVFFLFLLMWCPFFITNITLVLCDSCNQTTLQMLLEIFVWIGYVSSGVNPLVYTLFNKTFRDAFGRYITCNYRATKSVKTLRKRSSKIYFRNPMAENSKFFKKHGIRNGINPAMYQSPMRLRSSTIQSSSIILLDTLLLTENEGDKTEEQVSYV

[6] = molecular target: T2, 5-hydroxytryptamine receptor 1A (Homo sapiens, UniProt P08908); assay: Compound was measured […] for its binding affinity at 5-hydroxytryptamine 1A receptor using [3H]8-OH-DPAT as radioligand
T2 sequence (P08908 whole entry): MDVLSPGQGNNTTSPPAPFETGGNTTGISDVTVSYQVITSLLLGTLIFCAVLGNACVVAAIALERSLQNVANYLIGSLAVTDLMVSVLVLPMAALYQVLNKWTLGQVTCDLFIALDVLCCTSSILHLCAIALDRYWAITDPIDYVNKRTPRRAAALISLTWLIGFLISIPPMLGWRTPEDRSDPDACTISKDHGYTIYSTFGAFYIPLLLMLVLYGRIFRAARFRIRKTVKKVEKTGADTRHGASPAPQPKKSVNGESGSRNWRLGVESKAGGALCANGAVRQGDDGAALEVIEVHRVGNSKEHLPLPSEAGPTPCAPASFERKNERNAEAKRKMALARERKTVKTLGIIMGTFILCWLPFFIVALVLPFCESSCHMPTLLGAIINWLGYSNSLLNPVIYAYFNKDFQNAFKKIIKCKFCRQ

[7] = molecular target: T3, 5-hydroxytryptamine receptor 2C (Homo sapiens) (UniProt P28335); assay: Compound was measured for its binding affinity at 5-hydroxytryptamine 1C receptor at a concentration of 100 nM using [3H]mesulergine as radioligand
T3 sequence (whole entry): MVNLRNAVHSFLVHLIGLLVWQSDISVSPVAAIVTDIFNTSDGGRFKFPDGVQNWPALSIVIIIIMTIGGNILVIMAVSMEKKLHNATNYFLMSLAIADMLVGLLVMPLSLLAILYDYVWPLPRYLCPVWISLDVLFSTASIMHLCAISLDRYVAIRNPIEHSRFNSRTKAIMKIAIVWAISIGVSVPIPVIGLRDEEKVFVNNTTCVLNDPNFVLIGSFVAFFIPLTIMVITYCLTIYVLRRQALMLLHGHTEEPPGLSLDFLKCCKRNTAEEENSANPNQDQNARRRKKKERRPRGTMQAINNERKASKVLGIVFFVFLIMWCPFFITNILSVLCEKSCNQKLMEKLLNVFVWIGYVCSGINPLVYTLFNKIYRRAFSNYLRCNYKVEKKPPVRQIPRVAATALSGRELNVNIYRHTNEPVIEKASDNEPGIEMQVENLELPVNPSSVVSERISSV

D(2) dopamine receptor = D(2) dopamine receptor (Homo sapiens, UniProt P14416)
D(2) dopamine receptor, sequence (P14416 whole entry): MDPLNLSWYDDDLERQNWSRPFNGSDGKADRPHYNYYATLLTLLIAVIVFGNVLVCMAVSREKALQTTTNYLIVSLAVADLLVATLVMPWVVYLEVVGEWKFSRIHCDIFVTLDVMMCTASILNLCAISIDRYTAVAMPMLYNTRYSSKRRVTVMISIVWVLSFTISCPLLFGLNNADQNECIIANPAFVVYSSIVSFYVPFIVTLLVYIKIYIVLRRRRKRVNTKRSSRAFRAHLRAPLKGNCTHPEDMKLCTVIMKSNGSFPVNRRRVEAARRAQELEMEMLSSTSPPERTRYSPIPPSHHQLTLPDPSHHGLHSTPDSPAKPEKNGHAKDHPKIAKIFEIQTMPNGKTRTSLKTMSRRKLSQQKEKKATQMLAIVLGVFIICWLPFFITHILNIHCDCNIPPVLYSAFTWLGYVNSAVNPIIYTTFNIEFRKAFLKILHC
Description: Compound was measured in vivo for its binding affinity at Dopamine receptor D2 using [3H]spiperone as radioligand.

[8] = molecular target: T4, Adrenergic receptor alpha-1 (Homo sapiens, UniProt P35348+P25100+P35368); assay: Compound was measured […] for its binding affinity at Alpha-1 adrenergic receptor using [3H]prazosin as radioligand.
T4 sequence (P35348 whole entry): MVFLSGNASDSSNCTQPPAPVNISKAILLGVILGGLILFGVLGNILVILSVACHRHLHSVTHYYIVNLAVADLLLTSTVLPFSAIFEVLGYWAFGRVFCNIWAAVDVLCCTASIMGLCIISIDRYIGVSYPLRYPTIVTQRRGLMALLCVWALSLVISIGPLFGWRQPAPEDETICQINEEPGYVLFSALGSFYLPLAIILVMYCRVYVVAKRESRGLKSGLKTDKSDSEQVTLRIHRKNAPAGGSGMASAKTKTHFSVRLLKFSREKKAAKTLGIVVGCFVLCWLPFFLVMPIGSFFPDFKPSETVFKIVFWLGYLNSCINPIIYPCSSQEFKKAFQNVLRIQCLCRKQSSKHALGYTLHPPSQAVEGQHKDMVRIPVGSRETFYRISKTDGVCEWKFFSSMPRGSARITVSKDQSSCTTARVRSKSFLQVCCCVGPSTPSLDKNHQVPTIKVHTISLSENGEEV
T4 sequence (P25100 whole entry): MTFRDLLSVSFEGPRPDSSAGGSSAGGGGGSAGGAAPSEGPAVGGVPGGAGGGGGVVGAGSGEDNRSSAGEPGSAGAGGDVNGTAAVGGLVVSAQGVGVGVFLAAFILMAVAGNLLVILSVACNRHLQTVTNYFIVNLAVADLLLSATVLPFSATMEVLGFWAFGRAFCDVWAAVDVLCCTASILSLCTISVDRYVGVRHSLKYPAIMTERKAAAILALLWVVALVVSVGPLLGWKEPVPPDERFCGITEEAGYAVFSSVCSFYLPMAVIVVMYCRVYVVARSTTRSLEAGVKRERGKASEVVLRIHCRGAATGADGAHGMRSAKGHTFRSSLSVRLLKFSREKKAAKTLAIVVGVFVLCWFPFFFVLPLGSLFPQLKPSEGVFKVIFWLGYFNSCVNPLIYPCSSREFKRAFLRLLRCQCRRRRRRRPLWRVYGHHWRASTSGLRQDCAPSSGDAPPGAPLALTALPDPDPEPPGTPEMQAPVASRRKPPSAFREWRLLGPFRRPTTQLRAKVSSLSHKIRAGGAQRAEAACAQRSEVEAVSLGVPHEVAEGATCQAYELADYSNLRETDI
T4 sequence (P35368 whole entry): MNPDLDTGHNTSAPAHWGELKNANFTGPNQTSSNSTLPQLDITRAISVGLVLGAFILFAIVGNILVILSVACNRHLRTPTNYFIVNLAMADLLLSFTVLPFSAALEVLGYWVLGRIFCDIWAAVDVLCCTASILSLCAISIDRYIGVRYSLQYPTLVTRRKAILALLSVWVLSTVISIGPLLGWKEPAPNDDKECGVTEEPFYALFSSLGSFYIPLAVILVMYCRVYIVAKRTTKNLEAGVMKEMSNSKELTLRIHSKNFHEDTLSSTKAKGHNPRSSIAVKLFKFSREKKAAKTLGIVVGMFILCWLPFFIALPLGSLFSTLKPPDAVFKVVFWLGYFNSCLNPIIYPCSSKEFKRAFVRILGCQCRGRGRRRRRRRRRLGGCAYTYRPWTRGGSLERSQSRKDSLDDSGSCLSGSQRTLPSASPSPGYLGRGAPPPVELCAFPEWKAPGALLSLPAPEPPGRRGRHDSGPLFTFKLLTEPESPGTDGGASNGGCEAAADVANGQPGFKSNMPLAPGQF

[9] = molecular target: Serotonin 3 (5-HT3) receptor (Homo sapiens) (UniProt P46098+A5X5Y0+O95264+Q70Z44+Q8WXA8); assay: Compound was measured for its binding affinity at 5-hydroxytryptamine 3 receptor at a concentration of 10 uM using [3H]BRL-43694 as radioligand; format: protein-complex assay
[10] = molecular target: D(1A) dopamine receptor (Homo sapiens) (UniProt P21728); assay: Compound was measured for its binding affinity at Dopamine receptor D1 at a concentration of 10 uM using [3H]SCH-23390 as radioligand
D(1A) dopamine receptor (Homo sapiens), sequence (P21728 whole entry): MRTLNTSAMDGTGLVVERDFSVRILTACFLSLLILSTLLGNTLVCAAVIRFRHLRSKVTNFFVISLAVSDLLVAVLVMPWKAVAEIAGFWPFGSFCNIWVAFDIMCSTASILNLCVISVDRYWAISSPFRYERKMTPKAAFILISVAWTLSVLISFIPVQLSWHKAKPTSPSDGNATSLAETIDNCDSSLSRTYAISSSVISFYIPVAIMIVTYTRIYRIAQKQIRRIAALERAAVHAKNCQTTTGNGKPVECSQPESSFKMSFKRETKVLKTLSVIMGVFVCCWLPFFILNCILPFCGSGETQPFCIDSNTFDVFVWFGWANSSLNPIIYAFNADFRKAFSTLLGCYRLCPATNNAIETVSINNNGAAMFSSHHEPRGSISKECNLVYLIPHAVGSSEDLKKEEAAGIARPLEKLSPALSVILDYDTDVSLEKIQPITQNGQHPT

[11] = molecular target: T2, 5-hydroxytryptamine receptor 1A; assay: Binding affinity against 5-hydroxytryptamine 1A receptor
Rattus norvegicus [12] = assay: Compound was measured for its antipsychotic activity in the rat conditioned avoidance test at a dose of 15 mg/kg administered perorally; format: functional; settings: route oral
Rattus norvegicus [13] = assay: Compound was measured for its antipsychotic activity in the rat conditioned avoidance test, at a dose of 15 mg/kg compound administered perorally; format: functional; settings: route oral
D(3) dopamine receptor [14] = molecular target: T1, D(3) dopamine receptor
[15] = molecular target: 5-hydroxytryptamine receptor 5B (Rattus norvegicus, UniProt P35365); assay: Binding affinity against serotonin receptor
5-hydroxytryptamine receptor 5B, sequence (P35365 whole entry): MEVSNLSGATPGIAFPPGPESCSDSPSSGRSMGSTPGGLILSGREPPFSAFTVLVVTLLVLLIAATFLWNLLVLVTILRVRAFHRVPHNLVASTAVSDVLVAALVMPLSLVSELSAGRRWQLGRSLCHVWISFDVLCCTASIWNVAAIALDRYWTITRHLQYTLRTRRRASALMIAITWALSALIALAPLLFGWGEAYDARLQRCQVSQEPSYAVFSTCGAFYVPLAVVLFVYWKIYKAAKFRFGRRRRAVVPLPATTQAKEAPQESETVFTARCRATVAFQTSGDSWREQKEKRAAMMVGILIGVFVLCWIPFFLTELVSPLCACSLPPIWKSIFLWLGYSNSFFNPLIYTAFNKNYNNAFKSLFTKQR

5-hydroxytryptamine receptor 1B (Homo sapiens), sequence (P28222 whole entry): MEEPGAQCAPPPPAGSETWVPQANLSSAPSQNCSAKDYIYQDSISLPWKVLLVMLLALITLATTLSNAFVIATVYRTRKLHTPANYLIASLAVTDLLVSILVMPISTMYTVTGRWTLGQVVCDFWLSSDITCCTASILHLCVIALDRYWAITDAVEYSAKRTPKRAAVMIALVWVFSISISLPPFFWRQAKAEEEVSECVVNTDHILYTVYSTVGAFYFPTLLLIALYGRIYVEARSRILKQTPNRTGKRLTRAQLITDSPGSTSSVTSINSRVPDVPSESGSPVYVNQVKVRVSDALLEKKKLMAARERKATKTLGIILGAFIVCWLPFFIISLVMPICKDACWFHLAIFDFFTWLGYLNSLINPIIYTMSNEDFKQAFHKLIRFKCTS

Row | Compound | inhibition [1] [%] | inhibition [3] [%] | inhibition (D(3) dopamine receptor [4]) [%] | inhibition [5] [%] | pKi [6] | inhibition [7] [%] | pKi (D(2) dopamine receptor) | Ki [8] [nM] | inhibition [9] [%] | inhibition [10] [%] | pKi [11] | other results
1 | O=C(c1cccc(CN2CCc3c([nH]c4ccccc34)C2)c1)N1CCc2ccccc21 | 8.8 | 86.1 | 56 | 29.9 | 8.04 | 8.7 | < 6.00 | 2.9 | 22.6 | 40.8 | – | inhibition in vivo at 15 mg/kg (Rattus norvegicus [2]): -37%
2 | COc1cccc2c1C1CCN(CCCN3C(=O)c4ccccc4S3(=O)=O)C[C@H]1C2 (stereo partly drawn) | – | – | – | – | – | – | – | – | – | – | 9.05 | –
3 | O=C(c1cccc(CN2CCN3c4ccccc4OCC3C2)c1)N1CCc2ccccc21 (stereo not drawn) | 8.1 | 58.9 | 54 | 7.5 | 8.19 | -2.8 | < 6.00 | > 1000 | 12.5 | 42.4 | – | inhibition in vivo at 15 mg/kg (Rattus norvegicus [2]): -20%
4 | O=C(c1cccc(CN2CCN3c4ccccc4OCC3C2)c1)N1CCCCC1 (stereo not drawn) | 3.4 | 63.8 | 64 | 7.5 | 7.92 | 5.6 | < 6.00 | 200 | 5.1 | 14.7 | – | inhibition in vivo at 15 mg/kg (Rattus norvegicus [12]): -49%
5 | CCCCCCN1CCc2c([nH]c3ccccc23)C1 | – | – | – | – | – | – | – | – | – | – | 7.10 | –
6 | CCCN1CCC[C@@H]2c3cc(O)ccc3CC[C@H]21 | – | – | – | – | – | – | – | – | – | – | 8.41 | –
7 | CC(C)Oc1ccccc1N1CCN(Cc2cccc(C(=O)N3CCc4ccccc43)c2)CC1 | – | – | – | – | 8.47 | – | – | 1.7 | – | – | – | inhibition in vivo at 15 mg/kg (Rattus norvegicus [13]): -96%
8 | CC(C)Oc1ccccc1N1CCN(Cc2cccc(C(=O)N3CCCCC3)c2)CC1 [MAZAPERTINE] | – | – | – | – | – | – | – | – | – | – | – | pKi (D(3) dopamine receptor [14]): 8.74
9 | O=C(c1cccc(CN2CCc3c([nH]c4ccccc34)C2)c1)N1CCCCC1 | 1 | 74.7 | 27 | 18 | 7.89 | 5.5 | 6.43 | 36 | 13.6 | 23.7 | – | inhibition in vivo at 15 mg/kg (Rattus norvegicus [2]): -74%
10 | FC(F)(F)c1ccc2c(c1)N1CCNCC1CC2 (stereo not drawn) | – | – | – | – | – | – | – | – | – | – | – | pKi [15]: 7.17
11 | O=C1c2ccccc2C(=O)N1CCCCN1CCn2c(cc3ccccc32)C1 | – | – | – | – | – | – | – | – | – | – | 7.13 | –
